# Activity calls are given as the source filed them.
# Columns and labels:
# [1] = Shn3 3'UTR reporter inhibitors, dose response, cell-based, Clone20 osteoblasts, firefly luciferase, cherry-picked (AID 624132); assay type: functional;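 also: firefly luciferase luminescence from reporter carrying the Shn3 3'UTR in osteoblasts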
# Exodeoxyribonuclease V = target: T1, Exodeoxyribonuclease V (Escherichia coli (strain K12), UniProt P04993+P07648+P08394); experiment: E. coli RecBCD inhibitors, dose response, counter-screen for AddAB inhibitor project, absorbance, V66 E. coli, mutant T4 phage (AID 492957); assay type: functional, cell-based, Escherichia coli str. K-12 substr. MG1655
# T1 sequence (P04993 whole entry): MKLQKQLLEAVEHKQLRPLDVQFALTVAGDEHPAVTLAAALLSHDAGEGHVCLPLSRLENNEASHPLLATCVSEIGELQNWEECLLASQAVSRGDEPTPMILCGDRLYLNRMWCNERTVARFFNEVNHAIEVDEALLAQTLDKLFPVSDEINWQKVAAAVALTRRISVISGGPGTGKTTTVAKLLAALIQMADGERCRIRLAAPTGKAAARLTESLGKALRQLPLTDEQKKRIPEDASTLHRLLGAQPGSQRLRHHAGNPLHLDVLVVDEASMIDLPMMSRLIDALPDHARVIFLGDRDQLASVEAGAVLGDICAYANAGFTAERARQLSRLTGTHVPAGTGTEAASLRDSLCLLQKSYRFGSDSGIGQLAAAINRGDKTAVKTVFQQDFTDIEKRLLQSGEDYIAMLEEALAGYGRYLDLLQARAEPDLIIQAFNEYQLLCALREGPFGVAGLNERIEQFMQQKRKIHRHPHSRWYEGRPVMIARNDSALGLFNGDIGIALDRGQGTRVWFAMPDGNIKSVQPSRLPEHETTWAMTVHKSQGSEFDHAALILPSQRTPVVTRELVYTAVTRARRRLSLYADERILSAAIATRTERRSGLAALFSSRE
# T1 sequence (P07648 whole entry): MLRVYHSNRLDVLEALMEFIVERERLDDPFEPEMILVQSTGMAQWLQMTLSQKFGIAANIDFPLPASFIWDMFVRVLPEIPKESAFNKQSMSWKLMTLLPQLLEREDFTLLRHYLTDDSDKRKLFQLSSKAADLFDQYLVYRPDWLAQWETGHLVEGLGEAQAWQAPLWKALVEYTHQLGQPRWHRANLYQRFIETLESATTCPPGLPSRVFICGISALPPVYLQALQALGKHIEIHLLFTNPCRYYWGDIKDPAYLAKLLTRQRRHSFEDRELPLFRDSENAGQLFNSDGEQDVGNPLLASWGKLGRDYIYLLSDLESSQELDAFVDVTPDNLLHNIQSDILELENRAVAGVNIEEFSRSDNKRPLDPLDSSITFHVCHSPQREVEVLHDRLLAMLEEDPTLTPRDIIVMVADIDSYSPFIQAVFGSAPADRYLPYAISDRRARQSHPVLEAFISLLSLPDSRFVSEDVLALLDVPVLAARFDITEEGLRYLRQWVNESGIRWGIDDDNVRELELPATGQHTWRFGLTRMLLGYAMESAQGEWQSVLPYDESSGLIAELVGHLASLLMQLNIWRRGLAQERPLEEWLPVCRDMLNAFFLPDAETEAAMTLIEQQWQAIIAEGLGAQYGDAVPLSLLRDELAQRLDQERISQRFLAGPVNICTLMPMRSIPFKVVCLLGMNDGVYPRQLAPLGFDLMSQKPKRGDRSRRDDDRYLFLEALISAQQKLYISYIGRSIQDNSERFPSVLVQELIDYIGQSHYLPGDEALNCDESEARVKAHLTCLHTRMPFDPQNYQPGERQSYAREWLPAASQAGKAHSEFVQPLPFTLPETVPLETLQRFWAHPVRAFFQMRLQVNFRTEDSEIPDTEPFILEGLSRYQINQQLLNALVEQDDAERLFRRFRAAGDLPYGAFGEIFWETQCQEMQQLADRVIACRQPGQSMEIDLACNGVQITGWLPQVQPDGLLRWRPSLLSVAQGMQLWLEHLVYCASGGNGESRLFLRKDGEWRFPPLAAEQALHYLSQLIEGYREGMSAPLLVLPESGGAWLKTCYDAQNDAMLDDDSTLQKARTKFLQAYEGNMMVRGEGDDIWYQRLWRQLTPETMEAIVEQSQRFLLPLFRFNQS
# T1 sequence (P08394 whole entry): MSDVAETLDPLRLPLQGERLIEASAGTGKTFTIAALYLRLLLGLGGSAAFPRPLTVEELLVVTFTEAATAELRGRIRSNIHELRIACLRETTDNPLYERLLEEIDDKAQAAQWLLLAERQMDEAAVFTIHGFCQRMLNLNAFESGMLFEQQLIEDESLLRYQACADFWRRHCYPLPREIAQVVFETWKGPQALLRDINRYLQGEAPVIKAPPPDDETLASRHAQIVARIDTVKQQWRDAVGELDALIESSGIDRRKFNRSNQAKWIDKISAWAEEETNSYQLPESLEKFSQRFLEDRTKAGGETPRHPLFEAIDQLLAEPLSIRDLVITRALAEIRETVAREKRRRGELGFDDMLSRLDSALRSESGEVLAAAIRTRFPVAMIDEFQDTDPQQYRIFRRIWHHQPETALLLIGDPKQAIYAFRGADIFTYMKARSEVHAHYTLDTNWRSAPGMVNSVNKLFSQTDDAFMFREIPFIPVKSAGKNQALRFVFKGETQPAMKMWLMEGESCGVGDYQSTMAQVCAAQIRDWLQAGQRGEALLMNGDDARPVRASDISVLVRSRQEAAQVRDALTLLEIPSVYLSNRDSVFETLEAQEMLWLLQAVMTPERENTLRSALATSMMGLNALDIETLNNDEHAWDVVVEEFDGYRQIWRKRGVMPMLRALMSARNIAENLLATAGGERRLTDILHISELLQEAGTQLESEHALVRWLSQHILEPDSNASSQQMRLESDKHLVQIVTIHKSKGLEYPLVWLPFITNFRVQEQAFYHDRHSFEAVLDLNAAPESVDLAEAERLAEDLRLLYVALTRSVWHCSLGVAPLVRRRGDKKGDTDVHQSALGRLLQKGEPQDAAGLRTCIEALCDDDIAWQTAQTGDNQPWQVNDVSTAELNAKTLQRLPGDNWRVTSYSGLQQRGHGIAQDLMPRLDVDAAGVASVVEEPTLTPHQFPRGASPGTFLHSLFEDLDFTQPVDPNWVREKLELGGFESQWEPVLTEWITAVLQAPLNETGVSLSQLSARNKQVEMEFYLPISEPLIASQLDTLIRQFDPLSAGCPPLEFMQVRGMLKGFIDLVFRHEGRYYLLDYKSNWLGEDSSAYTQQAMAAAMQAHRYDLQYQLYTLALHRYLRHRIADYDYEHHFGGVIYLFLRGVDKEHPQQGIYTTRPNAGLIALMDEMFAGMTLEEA
# cells [2] = experiment: cells
# cells [3] = assay type: functional, cell-based
# [4] = C. albicans growth with fluconazole, confirmation, fluorescence, retest (AID 2467); assay type: functional, cell-based
# Streptococcus = experiment: Group A Streptococcus viability loss, dose response, counter-screen for streptokinase expression inhibitor project, luminescence, BacTiterGlo (AID 1915); assay type: functional, organism-based;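 also: potency for reduction of bacterial viability or growth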
SMILES,AC50 [1],IC50 (Exodeoxyribonuclease V),EC50 (cells [2]),EC50 (cells [3]),EC50 [4],EC50 (Streptococcus)
CCCCC(=O)NC(c1ccc(N(CC)CC)cc1)c1ccc2cccnc2c1O (stereo unspecified),1.12 µM (active),> 119 µM (inactive),0.241 µM (active),3.08 µM (active),0.405 µM (active),–
CCOc1cccc(/C=N/NC(=S)Nc2ccccc2[N+](=O)[O-])c1O,–,–,–,–,–,4.18 µM (active)

# — ChEMBL document CHEMBL1201862, “PubChem BioAssay data set” (2004)
